Experimental data published in PMC10644352, “Bromodomain Factor 5 as a Target for Antileishmanial Drug Discovery” (ACS Infectious Diseases, 2023).

Legend:
[1] = biological target: T1, bromodomain factor 5 (LdBDF5), second bromodomain BD5.2 (Leishmania donovani, UniProt A0ACM8QMJ0); experiment: FP competition (also TSA shift; waterLOGSY and CPMG NMR positive, STD inconclusive); assay type: binding
T1 construct: gene CGC21_36735; BD5.2 (second bromodomain of the N-terminal tandem repeat)
T1 sequence (A0ACM8QMJ0 161-300): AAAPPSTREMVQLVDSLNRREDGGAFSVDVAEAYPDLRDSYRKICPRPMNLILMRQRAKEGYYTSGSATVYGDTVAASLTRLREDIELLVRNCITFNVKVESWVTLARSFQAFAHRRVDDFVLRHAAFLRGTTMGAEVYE

[2] = biological target: T2, bromodomain factor 5 (LdBDF5), first bromodomain BD5.1 (Leishmania donovani, UniProt A0ACM8QMJ0); experiment: ITC (also MST Kd […], FP competition IC50 […], TSA, waterLOGSY/STD/CPMG NMR); assay type: binding
T2 construct: gene CGC21_36735; BD5.1 (first bromodomain of the N-terminal tandem repeat)

Row | IC50 [1] | SMILES | Kd [2]
1 | 24.7 ± 6.2 µM | CCn1cc(-c2cccc(C(F)(F)F)c2)c2sc(C(=N)NC3CCS(=O)(=O)CC3)cc2c1=O [I-BRD9] | –
2 | – | COc1ccc(CCc2nc3cc(-c4c(C)noc4C)ccc3n2C[C@H](C)N2CCOCC2)cc1Cl [SGC–CBP30] | 0.281 ± 0.0123 µM
